Test results reported in paper PMC2374539, “Anti-tumour effects and pharmacokinetic profile of 17-(5′ -isoxazolyl)androsta-4,16-dien-3-one (L-39) in mice: an inhibitor of androgen synthesis” (British Journal of Cancer, 2000).
Several values for one entry are separate records, joined by “and”; a condition that tells them apart may be missing. Equal values may be shown once. Entries after “also recorded” stand apart in the source; their conditions may differ.

Assays:
[1] = Pharmacokinetic studies after a single s.c. or i.v. bolus dose, plasma HPLC; type: in vivo, male Balb/c mice; set-up: AUC0- / Cmax: unit not given here
From the text: Prostate cancer is second only to lung cancer as the leading cause of death and is the most prevalent cancer amongst men in the USA and Europe and accounts for about a third of all cancers diagnosed each year in men. In the UK, the incidence of prostate cancer has almost doubled over the last 30 years. Similarly, in 1998, it was estimated that more than 334 500 cases were diagnosed and more than 41 800 men died of the disease in the USA (Dijkman and Debruyne, 1996). The prostate gland is under the influence of androgens and often becomes enlarged in older men. […] Localized prostate cancer is curable and although the metastatic form of the disease is difficult to manage, endocrine therapy does reduce the death rate from the disease and is first-line treatment for all patients. In the testis and adrenals, 17-hydroxylase/C17,20 -lyase converts the C21 steroid precursors to the corresponding C19 andro- gens. […] Both T and DHT stimu- late prostatic growth, although DHT plays a much more important role than T in the organogenesis and homeostasis of the prostate (Wilson, 1996). Current endocrine therapies such as orchidectomy and luteinizing hormone releasing hormone (LHRH) agonists result in reduced androgen production by the testis and are useful in the early stages of prostate cancer. However, these treatment options fail to alter androgen production by the adrenals that may contribute androgen precursors to the prostate. The addition of flutamide, an anti-androgen to inhibit the action of androgens on the prostate, is only partially effective as the disease frequently progresses due to mutations in the androgen receptor, which can utilize flutamide as an agonist. […] This may be achieved through dual inhibition of 17- hydroxylase/C17,20 -lyase and 5-reductase (Li et al, 1992; Klus et al, 1996). […] Androgen- dependent human prostate cancer xenografts (PC-82) were grown in nude mice and the effects of L-39 (50 mg kg-1 day-1 ) on tumour growth and prostate-specific antigen (PSA) levels were determined after 28 days. […] Pharmacokinetic studies were also conducted in male Balb/c mice. […] (c) 2000 Cancer Research Campaign Keywords: 17-hydroxylase/C17,20 -lyase; 5-reductase; androgens; prostate cancer; pharmacokinetics 74 Received 9 November 1999 Revised 4 February 2000 Accepted 10 February 2000 Correspondence to: AM Brodie British Journal of Cancer (2000) 83(1), 74-82 (c) 2000 Cancer Research Campaign doi: 10.1054/ bjoc.2000.1136, available online at http://www.idealibrary.com on *Present address: Department of Pharmaceutical Sciences, Temple University School of Pharmacy, Philadelphia, PA 19140, USA. Present address: School of Pharmaceutical Sciences, Beijing Medical University, China. Effects of L-39 in vitro and in vivo 75 British Journal of Cancer (2000) 83(1), 74-82 (c) 2000 Cancer Research Campaign advanced prostate cancer (Small et al, 1997). […] 5-Reductase occurs in two isoforms namely, type I and type II. The type II isoenzyme is the predominant form in the human prostate. […] In the present investigation, we describe the effects of L-39, a novel androstene derivative, in vitro and on human prostate cancer xenografts in nude mice. We also evaluated the pharmacokinetic properties of L-39 in male mice in this investigation. […] [21-3 H]-17-hydroxy- pregnenolone ([…] ) was prepared in our laboratory as previously described (Njar et al, 1998). [1,2,6,7-3 H]- Testosterone (96.5 Ci mmol-1 ) and [4-14 C]-dihydrotestosterone (56.5 mCi mmol-1 ) were obtained from Dupont (Boston, MA, USA).

[2] = test system: androgen receptors; set-up: method as in Long et al, 1999; details: L-39 5 μM, R1881 5 nM, LNCaP cultures; ref Long et al, 1999; cited from earlier work
[3] = Gross examination of vital organs, organ and body weights after treatment; type: in vivo, male athymic Ncr-nu mice; details: 50 mg kg-1 daily, s.c., 28 days
From the text: (§1) Prostate cancer is second only to lung cancer as the leading cause of death and is the most prevalent cancer amongst men in the USA and Europe and accounts for about a third of all cancers diagnosed each year in men. In the UK, the incidence of prostate cancer has almost doubled over the last 30 years. Similarly, in 1998, it was estimated that more than 334 500 cases were diagnosed and more than 41 800 men died of the disease in the USA (Dijkman and Debruyne, 1996). The prostate gland is under the influence of androgens and often becomes enlarged in older men. […] Localized prostate cancer is curable and although the metastatic form of the disease is difficult to manage, endocrine therapy does reduce the death rate from the disease and is first-line treatment for all patients. In the testis and adrenals, 17-hydroxylase/C17,20 -lyase converts the C21 steroid precursors to the corresponding C19 andro- gens. […] Both T and DHT stimu- late prostatic growth, although DHT plays a much more important role than T in the organogenesis and homeostasis of the prostate (Wilson, 1996). […] Androgen- dependent human prostate cancer xenografts (PC-82) were grown in nude mice and the effects of L-39 (50 mg kg-1 day-1 ) on tumour growth and prostate-specific antigen (PSA) levels were determined after 28 days. […] We also evaluated the pharmacokinetic properties of L-39 in male mice in this investigation. […]

[4] = test system: T and DHT concentrations; assay: Testosterone and DHT RIA in serum and PC-82 tumours of treated mice; type: in vivo, male athymic Ncr-nu mice; details: 50 mg kg-1 day-1, s.c., 28 days, P < 0.05
From the text: as §1

[5] = test system: PC-82 human prostate cancer xenografts; assay: Human PC-82 prostate cancer xenograft model: tumour volume and weight; type: in vivo, male athymic Ncr-nu mice
From the text: (§2) Prostate cancer is second only to lung cancer as the leading cause of death and is the most prevalent cancer amongst men in the USA and Europe and accounts for about a third of all cancers diagnosed each year in men. In the UK, the incidence of prostate cancer has almost doubled over the last 30 years. Similarly, in 1998, it was estimated that more than 334 500 cases were diagnosed and more than 41 800 men died of the disease in the USA (Dijkman and Debruyne, 1996). The prostate gland is under the influence of androgens and often becomes enlarged in older men. […] Localized prostate cancer is curable and although the metastatic form of the disease is difficult to manage, endocrine therapy does reduce the death rate from the disease and is first-line treatment for all patients. In the testis and adrenals, 17-hydroxylase/C17,20 -lyase converts the C21 steroid precursors to the corresponding C19 andro- gens. […] Both T and DHT stimu- late prostatic growth, although DHT plays a much more important role than T in the organogenesis and homeostasis of the prostate (Wilson, 1996). Current endocrine therapies such as orchidectomy and luteinizing hormone releasing hormone (LHRH) agonists result in reduced androgen production by the testis and are useful in the early stages of prostate cancer. However, these treatment options fail to alter androgen production by the adrenals that may contribute androgen precursors to the prostate. The addition of flutamide, an anti-androgen to inhibit the action of androgens on the prostate, is only partially effective as the disease frequently progresses due to mutations in the androgen receptor, which can utilize flutamide as an agonist. […] Androgen- dependent human prostate cancer xenografts (PC-82) were grown in nude mice and the effects of L-39 (50 mg kg-1 day-1 ) on tumour growth and prostate-specific antigen (PSA) levels were determined after 28 days. […] We also evaluated the pharmacokinetic properties of L-39 in male mice in this investigation. […]

[6] = molecular target: T1, 5α-reductase in human prostatic microsomes (Homo sapiens, UniProt P31213); assay: 5α-Reductase assay in human prostatic (BPH) microsomes; type: biochemical
T1 sequence (P31213 1-254): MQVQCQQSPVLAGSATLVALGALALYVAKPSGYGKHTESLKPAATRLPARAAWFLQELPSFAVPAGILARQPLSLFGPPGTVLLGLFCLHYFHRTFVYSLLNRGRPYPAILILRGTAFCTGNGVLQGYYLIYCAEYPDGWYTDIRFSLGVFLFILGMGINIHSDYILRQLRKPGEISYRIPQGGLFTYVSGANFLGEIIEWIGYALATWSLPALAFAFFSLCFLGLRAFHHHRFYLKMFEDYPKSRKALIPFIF
From the text: as §2

[7] = test system: prostate-specific antigen (PSA) levels; assay: PSA ELISA in serum and PC-82 tumours of treated mice; type: in vivo, male athymic Ncr-nu mice; details: 50 mg kg-1 day-1, s.c., 28 days, P < 0.01
From the text: as §1

[8] = molecular target: T2, human testicular microsomal 17α-hydroxylase/C17,20-lyase (Homo sapiens, UniProt P05093); assay: Inhibition of 17α-hydroxylase/C17,20-lyase activity in human testicular microsomes ([3H]-acetic acid release); type: biochemical
T2 construct: Testicular and prostatic microsomes were prepared as described previously; from tissue; host or cells: human testis, microsomal fraction
T2 sequence (P05093 1-508): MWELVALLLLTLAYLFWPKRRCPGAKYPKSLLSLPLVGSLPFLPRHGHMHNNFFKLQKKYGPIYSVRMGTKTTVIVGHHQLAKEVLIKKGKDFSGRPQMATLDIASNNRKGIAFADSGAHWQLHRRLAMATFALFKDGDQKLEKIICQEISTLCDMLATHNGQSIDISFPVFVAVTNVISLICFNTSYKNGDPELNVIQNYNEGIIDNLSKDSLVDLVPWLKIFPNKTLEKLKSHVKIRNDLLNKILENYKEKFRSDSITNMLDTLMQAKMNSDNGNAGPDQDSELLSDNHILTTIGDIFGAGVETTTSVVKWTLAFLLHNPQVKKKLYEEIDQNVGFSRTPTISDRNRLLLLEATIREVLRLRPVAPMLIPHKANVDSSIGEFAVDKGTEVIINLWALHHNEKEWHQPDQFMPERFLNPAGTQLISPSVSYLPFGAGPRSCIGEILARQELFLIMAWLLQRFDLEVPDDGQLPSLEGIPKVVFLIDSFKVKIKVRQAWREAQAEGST
From the text: as §2

[9] = test system: LNCaP human prostate cancer cells; set-up: method as in Long et al, 1999; details: ref Long et al, 1999; cited from earlier work
[10] = test system: LNCaP human prostatic cells grown as tumours; set-up: method as in Long et al, 1999; details: ref Long et al, 1999; cited from earlier work
[11] = Solubility in water; type: physicochemical
[12] = molecular target: T2, human testicular microsomal 17α-hydroxylase/C17,20-lyase; set-up: method as in Nnane et al, 1998; details: ref Nnane et al, 1998; cited from earlier work
[13] = intravenous 50 mg kg-1, single bolus, mouse plasma
[14] = subcutaneous 50 mg kg-1, single bolus, mouse plasma
[15] = subcutaneous 100 mg kg-1, single bolus, mouse plasma

C[C@]12CCC(=O)C=C1CC[C@@H]1[C@@H]2CC[C@]2(C)C(c3ccno3)=CC[C@@H]12 [L-39, 17-(5′-Isoxazolyl)androsta-4,16-dien-3-one]
metabolism in mice ([1]; initial observations, metabolite not characterized): metabolized to a more polar metabolite
time after intravenous administration at which L-39 was not detectable in plasma ([1]; intravenous 50 mg kg-1): 4 h
AUC0- [1, 13]: 14.41
CI (total clearance) [1, 13]: 3.47 0.14 l h-1 kg-1 and 3.5 l h-1 kg-1
Kel (terminal elimination rate constant) [1, 13]: 1.05 0.05 h-1 and 1.052 h-1
MTR [1, 13]: 1.15 h
T1/2 [1, 13]: 0.66 h
Vd [1, 13]: 3.30 0.13 l kg-1
AUC0- [1, 14]: 4.09
CI (total clearance) [1, 14]: 12.24 0.48 l h-1 kg-1
Cmax [1, 14]: 1.42
Kel [1, 14]: 0.46 0.02 h-1
MTR [1, 14]: 2.52 h
T1/2 [1, 14]: 1.51 h
Tmax [1, 14]: 0.75 h
Vd [1, 14]: 26.73 1.04 l kg-1
AUC0- [1, 15]: 4.04
CI (total clearance) [1, 15]: 24.78 1.0 l h-1 kg-1
Cmax [1, 15]: 1.30
Kel [1, 15]: 0.53 0.03 h-1
MTR [1, 15]: 2.41 h
T1/2 [1, 15]: 1.31 h
Tmax [1, 15]: 1.0 h
Vd [1, 15]: 46.80 1.84 l kg-1
anti-androgenic activity: binding of labelled R1881 to androgen receptors [2]: preventing the labelled synthetic androgen R1881 (5 n M) from binding to the androgen receptors
gross examination of liver, kidney, heart and adrenal gland [3]: did not reveal toxicity
weight of vital organs and body weight [3]: did not change significantly
reduction of DHT concentration in PC-82 tumour xenografts [4]: 94%
reduction of T concentration in PC-82 tumour xenografts [4]: 64%
diminution of PC-82 tumour weights ([5]; 50 mg kg-1 daily, s.c., 28 days, vs control): 70%
increase in tumour volume over 28 days ([5]; 50 mg kg-1 daily, s.c., control increased twofold): 1.25 fold
potency in reducing growth of PC-82 tumour xenografts, compared with other therapies ([5]; 50 mg kg-1 day-1, s.c., 28 days): to a similar extent as castration or flutamide treatment
type of inhibition of 5α-reductase [6]: competitive
Ki ([6]; Lineweaver-Burke slopes, read-out: Ki, inhibition of 5α-reductase): 28 nM
IC50 ([6]; T 40 nM, 10 min, pH 7.4, read-out: IC50, inhibition of 5α-reductase): 33 nM
reduction of tumour PSA levels [7]: 50%
type of inhibition of 17α-hydroxylase/C17,20-lyase [8]: non-competitive
Ki ([8]; Lineweaver-Burke slopes): 22 nM
IC50 ([8]; substrate 17-hydroxypregnenolone, 1 h, pH 7.4): 59 nM
proliferation of LNCaP cells in culture [9]: inhibits proliferation
growth of LNCaP tumours in male SCID mice [10]: effective at slowing LNCaP human prostatic cells grown in male SCID mice as tumours; also recorded: more effective than flutamide
solubility in water [11]: poorly soluble in water

CC(C)(C)NC(=O)[C@H]1CC[C@H]2[C@@H]3CC[C@H]4NC(=O)C=C[C@]4(C)[C@H]3CC[C@]12C [finasteride]
activity against 17-hydroxylase/C17,20-lyase [12]: no activity
